The target of this experiment is KRasG12C (M1-K169, biotinylated on the N-terminus) (Homo sapiens (Human), UniProt P01116, G12C). Briefly: Covalent competition assay: scintillation proximity assay (SPA) quantifying covalent modification of KRASG12C. The class given is binding. The following applies: competition with radiolabeled covalent probe (Compound B/Compound A), 2 hours incubation, 10 nM KRasG12C. The essentials: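 Scintillation proximity readout after streptavidin bead capture (30 min) of biotinylated KRasG12C(M1-K169):GDP, 10 nM final, which was covalently labelled over 2 h by 25 nM radio-probe plus 475 nM cold probe unless blocked by compound.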
(In a scintillation proximity assay essentially only radioactivity close to the scintillant gives light.)
Broadly, the IC50 is the concentration at which inhibition is half-maximal. `C=CC(=O)N1CC2(CC(n3nc(N4CCN(Cc5cn(C)nn5)C[C@]4(C)CC)c(-c4c(Cl)c(C)cc5[nH]ncc45)c3C)C2)C1` (single isomer, unassigned) [Example 188a]: the IC50 amounted to 387 nM.

Take `Cc1cc2[nH]ncc2c(-c2c(N3CCN(C4COC4)CC34CCC4)nn(C3CC4(C3)CN(C(=O)/C=C/CF)C4)c2C)c1Cl` (single isomer, unassigned) [Example 113b, (E)-1-(6-(4-(5-chloro-6-methyl-1H-indazol-4-yl)-5-methyl-3-(8-(oxetan-3-yl)-5,8-diazaspiro[3.5]nonan-5-yl)-1H-pyrazol-1-yl)-2-azaspiro[3.3]heptan-2-yl)-4-fluorobut-2-en-1-one]: the IC50 is 105 nM.

`C=CC(=O)N1CC2(CC(n3nc(N4CC[C@@H](CN5C6CCC5CN(C(C)=O)C6)CC4(C)C)c(-c4c(Cl)c(Cl)cc5[nH]ncc45)c3C)C2)C1` (single isomer, unassigned) [Example 318b]: the IC50 was determined as 7 nM.

Consider `C=CC(=O)N1CC2(CC(n3nc(N4CCC(N5C[C@H]6C[C@@H]5CN6S(C)(=O)=O)CC4(C)C)c(-c4c(Cl)c(Cl)cc5[nH]ncc45)c3C)C2)C1` (single isomer, unassigned) [Example 212b], for which the IC50 stood at 12 nM.

Turning to `C=CC(=O)N1CC2(CC(n3nc(N4CCC(N5CC6COCC(C5)O6)CC4(C)C)c(-c4c(Cl)c(C)cc5[nH]ncc45)c3C)C2)C1` (single isomer, unassigned) [Example 119b, 1-(6-(3-(4-(3,9-dioxa-7-azabicyclo[3.3.1]nonan-7-yl)-2,2-dimethylpiperidin-1-yl)-4-(5-chloro-6-methyl-1H-indazol-4-yl)-5-methyl-1H-pyrazol-1-yl)-2-azaspiro[3.3]heptan-2-yl)prop-2-en-1-one], the IC50 came out at 36 nM.

On to `C=CC(=O)N1C[C@]2(C[C@H](n3nc(N4CCN(C[C@@H]5COCCO5)C[C@]4(C)CC)c(-c4c(Cl)c(C)cc5[nH]ncc45)c3C)C2)[C@H]1C` (single isomer, unassigned) [Example 200b], for which the concentration for half-maximal inhibition (IC50) was 23 nM.

On to `C=CC(=O)N1CC2(CC(n3nc(N4CC[C@@H](CN5CCN6C[C@@H](O)C[C@@H]6C5)CC4(C)C)c(-c4c(Cl)c(Cl)cc5[nH]ncc45)c3C)C2)C1` (single isomer, unassigned) [Example 287b], for which the half-inhibitory concentration (IC50) was 9 nM.

Regarding `C=CC(=O)N1CC2(CC(n3nc(N4CCN(C(C)=O)C5(CCC5)C4)c(-c4c(Cl)c(C)cc5[nH]ncc45)c3C)C2)C1` (single isomer, unassigned) [Example 20b, 1-(6-(3-(5-acetyl-5,8-diazaspiro[3.5]nonan-8-yl)-4-(5-chloro-6-methyl-1H-indazol-4-yl)-5-methyl-1H-pyrazol-1-yl)-2-azaspiro[3.3]heptan-2-yl)prop-2-en-1-one], the IC50 is 38300 nM.

`C=CC(=O)N1CC2(CC(n3nc(N4CCC(N(C)C5COC5)CC45CCC5)c(-c4c(Cl)c(C)cc5[nH]nc(N)c45)c3C)C2)C1` (single isomer, unassigned) [Example 116b, 1-(6-(4-(3-amino-5-chloro-6-methyl-1H-indazol-4-yl)-5-methyl-3-(8-(methyl(oxetan-3-yl)amino)-5-azaspiro[3.5]nonan-5-yl)-1H-pyrazol-1-yl)-2-azaspiro[3.3]heptan-2-yl)prop-2-en-1-one]: the IC50 is 1900 nM.

With `C=CC(=O)N1CC2(CC(n3nc(N4CCc5ncncc5C4)c(-c4c(Cl)c(C)cc5[nH]ncc45)c3C)C2)C1` (single isomer, unassigned) [Example 15a, 1-(6-(4-(5-chloro-6-methyl-1H-indazol-4-yl)-3-(7,8-dihydropyrido[4,3-d]pyrimidin-6(5H)-yl)-5-methyl-1H-pyrazol-1-yl)-2-azaspiro[3.3]heptan-2-yl)prop-2-en-1-one], the IC50 was 18000 nM.

As for `C=CC(=O)N1CC2(CC(n3nc(N4CC[C@@H](CN5CC6(COCCN6C)C5)CC4(C)C)c(-c4c(Cl)c(Cl)cc5[nH]ncc45)c3C)C2)C1` (single isomer, unassigned) [Example 291a], the IC50 was greater than 5000 nM.

The values above are taken from patent publication US20240317721A1, “PYRAZOLYL DERIVATIVES AS INHIBITORS OF THE KRAS MUTANT PROTEIN” (NOVARTIS AG, priority 2021, published 2024).
